Measurements taken from PubChem BioAssay AID1963429 (Molecular Pharmacology Branch, DTP, NCI, 2024).

Test system: 126254-015-R-J1-PDC complex spheroid growth, % test/control
Test: Anticancer human tumor 126254-015-R-J1-PDC patient-derived soft tissue sarcoma cell line growth inhibition [Asc]
Conditions: for IC50: curve of first compound; for viability, T/C: stronger effect = lower value
Method in brief: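 Complex solid-tumor spheroids incorporating human endothelial and mesenchymal stem cells received single agents or combinations over half-log dilution ranges anchored to clinical Cmax.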

[1] = second compound 0.1 µM, first compound 0.0316 µM
[2] = second compound 0.1 µM, first compound 0.1 µM
[3] = second compound 0.1 µM, first compound 0.316 µM
[4] = second compound 0.1 µM, first compound 1 µM
[5] = second compound 0.316 µM, first compound 0.0316 µM
[6] = second compound 0.316 µM, first compound 0.1 µM
[7] = second compound 0.316 µM, first compound 0.316 µM
[8] = second compound 0.316 µM, first compound 1 µM
[9] = second compound 1 µM, first compound 0.0316 µM
[10] = second compound 1 µM, first compound 0.1 µM
[11] = second compound 1 µM, first compound 0.316 µM
[12] = second compound 1 µM, first compound 1 µM
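Further: spheroids exposed to compound for seven days.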
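Wherever viability, T/C is given: 100% = DMSO vehicle control wells.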

O=C(c1ccc(F)c(F)c1Nc1ccc(I)cc1F)N1CC(O)([C@@H]2CCCCN2)C1 + Cc1c(S(C)(=O)=O)c(-c2cc(F)cc(N3CCN(c4ccc(NS(=O)(=O)c5ccc(NC(CCN6CCC(C(=O)OCCCP(=O)(O)O)CC6)CSc6ccccc6)c(S(=O)(=O)C(F)(F)F)c5)cc4)CC3)c2)c(-c2ccc(Cl)cc2)n1C(C)C
IC50 (second compound 0.1 µM): 644 nM | IC50 (second compound 0.316 µM): 502 nM | IC50 (second compound 1 µM): 494 nM | IC50 (second compound 3.16 µM): 420 nM | IC50 (second compound 10 µM): 321 nM | viability, T/C (second compound 0.1 µM, first compound 0.00316 µM): 87.3% | viability, T/C (second compound 0.1 µM, first compound 0.01 µM): 106% | viability, T/C [1]: 106% | viability, T/C [2]: 87.7% | viability, T/C [3]: 70.7% | viability, T/C [4]: 37.6% | viability, T/C (second compound 0.316 µM, first compound 0.00316 µM): 88.5% | viability, T/C (second compound 0.316 µM, first compound 0.01 µM): 87.7% | viability, T/C [5]: 84.7% | viability, T/C [6]: 83.4% | viability, T/C [7]: 60.9% | viability, T/C [8]: 33.6% | viability, T/C (second compound 1 µM, first compound 0.00316 µM): 89.2% | viability, T/C (second compound 1 µM, first compound 0.01 µM): 93.7% | viability, T/C [9]: 83.9% | viability, T/C [10]: 79.3% | viability, T/C [11]: 65.5% | viability, T/C [12]: 26.9% | viability, T/C (second compound 3.16 µM, first compound 0.00316 µM): 88.1% | viability, T/C (second compound 3.16 µM, first compound 0.01 µM): 92% | viability, T/C (second compound 3.16 µM, first compound 0.0316 µM): 75.5% | viability, T/C (second compound 3.16 µM, first compound 0.1 µM): 82.5% | viability, T/C (second compound 3.16 µM, first compound 0.316 µM): 55.8% | viability, T/C (second compound 3.16 µM, first compound 1 µM): 27.6% | viability, T/C (second compound 10 µM, first compound 0.00316 µM): 90.1% | viability, T/C (second compound 10 µM, first compound 0.01 µM): 98% | viability, T/C (second compound 10 µM, first compound 0.0316 µM): 80.2% | viability, T/C (second compound 10 µM, first compound 0.1 µM): 75.3% | viability, T/C (second compound 10 µM, first compound 0.316 µM): 49.6% | viability, T/C (second compound 10 µM, first compound 1 µM): 25.3%

NC(=O)C(=Cn1cnc(-c2cc(C(F)(F)F)cc(C(F)(F)F)c2)n1)c1cncnc1 + CCN1C(C(=O)NC23CCC(C(=O)O)(CC2)CC3)C(c2cccc(Cl)c2F)C2(C(=O)Nc3cc(Cl)ccc32)C12CCCCC2
IC50 (second compound 0.03 µM): 66.2 nM | IC50 (second compound 0.0949 µM): 49.3 nM | IC50 (second compound 0.3 µM): 43.9 nM | IC50 (second compound 0.949 µM): 49.5 nM | IC50 (second compound 3 µM): 67 nM | viability, T/C (second compound 0.03 µM, first compound 0.000949 µM): 93.9% | viability, T/C (second compound 0.03 µM, first compound 0.003 µM): 87.4% | viability, T/C (second compound 0.03 µM, first compound 0.00949 µM): 79.4% | viability, T/C (second compound 0.03 µM, first compound 0.03 µM): 77.8% | viability, T/C (second compound 0.03 µM, first compound 0.0949 µM): 37.5% | viability, T/C (second compound 0.03 µM, first compound 0.3 µM): 19.6% | viability, T/C (second compound 0.0949 µM, first compound 0.000949 µM): 102% | viability, T/C (second compound 0.0949 µM, first compound 0.003 µM): 90.5% | viability, T/C (second compound 0.0949 µM, first compound 0.00949 µM): 78.6% | viability, T/C (second compound 0.0949 µM, first compound 0.03 µM): 61.3% | viability, T/C (second compound 0.0949 µM, first compound 0.0949 µM): 35.8% | viability, T/C (second compound 0.0949 µM, first compound 0.3 µM): 14% | viability, T/C (second compound 0.3 µM, first compound 0.000949 µM): 90.1% | viability, T/C (second compound 0.3 µM, first compound 0.003 µM): 102% | viability, T/C (second compound 0.3 µM, first compound 0.00949 µM): 83% | viability, T/C (second compound 0.3 µM, first compound 0.03 µM): 53.1% | viability, T/C (second compound 0.3 µM, first compound 0.0949 µM): 39.3% | viability, T/C (second compound 0.3 µM, first compound 0.3 µM): 17.5% | viability, T/C (second compound 0.949 µM, first compound 0.000949 µM): 96.5% | viability, T/C (second compound 0.949 µM, first compound 0.003 µM): 87.4% | viability, T/C (second compound 0.949 µM, first compound 0.00949 µM): 96.1% | viability, T/C (second compound 0.949 µM, first compound 0.03 µM): 64.2% | viability, T/C (second compound 0.949 µM, first compound 0.0949 µM): 31.6% | viability, T/C (second compound 0.949 µM, first compound 0.3 µM): 21% | viability, T/C (second compound 3 µM, first compound 0.000949 µM): 102% | viability, T/C (second compound 3 µM, first compound 0.003 µM): 99.3% | viability, T/C (second compound 3 µM, first compound 0.00949 µM): 87.7% | viability, T/C (second compound 3 µM, first compound 0.03 µM): 70.2% | viability, T/C (second compound 3 µM, first compound 0.0949 µM): 41.1% | viability, T/C (second compound 3 µM, first compound 0.3 µM): 19.6%

C=CC(=O)N1CCN(c2nc(=O)n(-c3c(C)ccnc3C(C)C)c3nc(-c4c(O)cccc4F)c(F)cc23)C(C)C1 (stereo not given) + CNC(C)C(=O)NC1CN(S(=O)(=O)c2cccc(S(=O)(=O)N3CCC4CCC(C(=O)NC(c5ccccc5)c5ccccc5)N4C(=O)C(NC(=O)C(C)NC)C3)c2)CCC2CCC(C(=O)NC(c3ccccc3)c3ccccc3)N2C1=O
IC50 (second compound 0.01 µM): > 10000 nM | IC50 (second compound 0.0316 µM): > 10000 nM | IC50 (second compound 0.1 µM): > 10000 nM | IC50 (second compound 0.316 µM): > 10000 nM | IC50 (second compound 1 µM): > 10000 nM | viability, T/C (second compound 0.01 µM, first compound 0.0316 µM): 94.4% | viability, T/C (second compound 0.01 µM, first compound 0.1 µM): 99.5% | viability, T/C (second compound 0.01 µM, first compound 0.316 µM): 94.5% | viability, T/C (second compound 0.01 µM, first compound 1 µM): 110% | viability, T/C (second compound 0.01 µM, first compound 3.16 µM): 101% | viability, T/C (second compound 0.01 µM, first compound 10 µM): 82.3% | viability, T/C (second compound 0.0316 µM, first compound 0.0316 µM): 85.1% | viability, T/C (second compound 0.0316 µM, first compound 0.1 µM): 84.8% | viability, T/C (second compound 0.0316 µM, first compound 0.316 µM): 86.7% | viability, T/C (second compound 0.0316 µM, first compound 1 µM): 84.2% | viability, T/C (second compound 0.0316 µM, first compound 3.16 µM): 87.1% | viability, T/C (second compound 0.0316 µM, first compound 10 µM): 75.2% | viability, T/C [1]: 70.7% | viability, T/C [2]: 78% | viability, T/C [3]: 81.5% | viability, T/C [4]: 75.7% | viability, T/C (second compound 0.1 µM, first compound 3.16 µM): 82.7% | viability, T/C (second compound 0.1 µM, first compound 10 µM): 67.3% | viability, T/C [5]: 69.2% | viability, T/C [6]: 77.2% | viability, T/C [7]: 71.5% | viability, T/C [8]: 70.9% | viability, T/C (second compound 0.316 µM, first compound 3.16 µM): 73.9% | viability, T/C (second compound 0.316 µM, first compound 10 µM): 67.7% | viability, T/C [9]: 62.8% | viability, T/C [10]: 72.4% | viability, T/C [11]: 67.5% | viability, T/C [12]: 72% | viability, T/C (second compound 1 µM, first compound 3.16 µM): 70.3% | viability, T/C (second compound 1 µM, first compound 10 µM): 65.5%
